Source: patent US20110105509A1 (Wyeth, LLC, priority 2009, published 2011)

Target: T1, CRTH2 (Homo sapiens, UniProt Q9Y5Y4)
T1 construct: expressed in transfected cells; host or cells: CHO cells
T1 sequence (Q9Y5Y4 1-395): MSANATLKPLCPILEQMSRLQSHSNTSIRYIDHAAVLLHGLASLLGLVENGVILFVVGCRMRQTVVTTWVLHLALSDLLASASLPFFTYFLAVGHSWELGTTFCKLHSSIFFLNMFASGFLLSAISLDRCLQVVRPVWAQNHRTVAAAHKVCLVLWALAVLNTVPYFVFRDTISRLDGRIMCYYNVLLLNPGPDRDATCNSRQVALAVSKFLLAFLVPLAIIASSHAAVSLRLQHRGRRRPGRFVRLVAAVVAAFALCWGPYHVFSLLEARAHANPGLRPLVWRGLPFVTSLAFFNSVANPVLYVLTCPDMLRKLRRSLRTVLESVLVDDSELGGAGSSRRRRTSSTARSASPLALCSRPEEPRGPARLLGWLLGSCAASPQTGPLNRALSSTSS
Test: FRET based competitive immunoassay (cAMP) in CRTH2 expressing CHO cells
Format: cell-based
Details: CRTH2 expressing CHO cells incubated with forskolin and PGD2; Eu3+ cryptate-labeled anti-cAMP and d2-labeled cAMP
Description: FRET Assay: To evaluate potency compounds were tested in a FRET based competitive immunoassay in which CRTH2 expressing CHO cells were incubated in the presence of forskolin and PGD2 along with Eu3+ cryptate-labeled anti-cAMP and d2-labeled cAMP.

Row | Compound | IC50 [nM]
1 | Cc1c(-c2ccc(=O)n(Cc3ccc(Cl)c(F)c3)n2)c2cc(Cl)ccc2n1CC(=O)O [Example 8, 2-(5-Chloro-3-(1-(4-chloro-3-fluorobenzyl)-6-oxo-1,6-dihydropyridazin-3-yl)-2-methyl-1H-indol-1-yl)acetic acid] | 5
2 | Cc1c(-c2ccc(=O)n(C)n2)c2cc(F)ccc2n1CC(=O)O [Example 159, 2-(5-fluoro-2-methyl-3-(1-methyl-6-oxo-1,6-dihydropyridazin-3-yl)-1H-indol-1-yl)acetic acid] | 2490
3 | CCn1nc(-c2c(C)n(CC(=O)O)c3ccc(Cl)cc23)c2ccccc2c1=O [Example 106, 2-(5-Chloro-3-(3-ethyl-4-oxo-3,4-dihydrophthalazin-1-yl)-2-methyl-1H-indol-1-yl)acetic acid] | 23
4 | Cc1c(-c2ccc(=O)n(CC(F)(F)F)c2)c2cc(F)ccc2n1CC(=O)O [Example 280, 2-(5-Fluoro-2-methyl-3-(6-oxo-1-(2,2,2-trifluoroethyl)-1,6-dihydropyridin-3-yl)-1H-indol-1-yl)acetic acid] | 117
5 | Cc1c(-c2ccc(=O)n(Cc3cccc(F)c3)n2)c2cc(F)ccc2n1CC(=O)O [Example 154, 2-(5-Fluoro-3-(1-(3-fluorobenzyl)-6-oxo-1,6-dihydropyridazin-3-yl)-2-methyl-1H-indol-1-yl)acetic acid] | 30
6 | Cc1c(-c2ccc(=O)n(Cc3ccc4ccccc4n3)n2)c2cc(F)ccc2n1CC(=O)O [Example 157, 2-(5-fluoro-2-methyl-3-(6-oxo-1-(quinolin-2-ylmethyl)-1,6-dihydro-pyridazin-3-yl)-1H-indol-1-yl)acetic acid] | 57
7 | Cc1c(-c2nn(Cc3ccccc3)c(=O)c3ccccc23)c2ccccc2n1CC(=O)NS(C)(=O)=O [Example 50, 2-(3-(3-Benzyl-4-oxo-3,4-dihydrophthalazin-1-yl)-2-methyl-1H-indol-1-yl)-N-(methylsulfonyl)acetamide] | > 1500
8 | Cc1c(-c2ccc(=O)n(C(C)C)n2)c2ccccc2n1CC(=O)O [Example 181, 2-(3-(1-isopropyl-6-oxo-1,6-dihydropyridazin-3-yl)-2-methyl-1H-indol-1-yl)-acetic acid] | 920
9 | Cc1c(-c2nn(Cc3nc4cc(C(F)(F)F)ccc4s3)c(=O)c3ccccc23)c2cc(F)ccc2n1CC(=O)O [Example 115, 2-(5-fluoro-2-methyl-3-(4-oxo-3-((5-(trifluoromethyl)benzo[d]thiazol-2-yl)-methyl)-3,4-dihydrophthalazin-1-yl)-1H-indol-1-yl)acetic acid] | 64
10 | Cc1c(Cc2ccc(=O)n(Cc3ccccc3)n2)c2cc(Cl)ccc2n1CC(=O)O [Example 80, 2-(3-((1-Benzyl-6-oxo-1,6-dihydropyridazin-3-yl)methyl)-5-chloro-2-methyl-1H-indol-1-yl)acetic acid] | 16
11 | Cc1c(-c2ccc(=O)n(Cc3cccc(F)c3F)c2)c2cc(F)ccc2n1Cc1nn[nH]n1 [Example 311, 5-(1-((2H-tetrazol-5-yl)methyl)-5-fluoro-2-methyl-1H-indol-3-yl)-1-(2,3-difluoro-benzyl)pyridin-2(1H)-one] | > 1000
12 | Cc1c(-c2ccc(=O)n(C(C)C)n2)c2cc(Cl)cc(Cl)c2n1CC(=O)O [Example 235, 2-(5,7-dichloro-3-(1-isopropyl-6-oxo-1,6-dihydropyridazin-3-yl)-2-methyl-1H-indol-1-yl)acetic acid] | 1580
13 | Cc1c(Cc2ccc(=O)n(C(C)C)c2)c2ccccc2n1CC(=O)O [Example 22] | 765
14 | Cc1c(-c2nn(Cc3ccc(Cl)c(F)c3)c(=O)c3ccccc23)c2cc(F)ccc2n1CC(=O)O [Example 5, 2-(3-(3-(4-Chloro-3-fluorobenzyl)-4-oxo-3,4-dihydrophthalazin-1-yl)-5-fluoro-2-methyl-1H-indol-1-yl)acetic acid] | 10
15 | Cc1c(-c2ccc(=O)n(C(C)C)c2)c2cc(Cl)ccc2n1CC(=O)O [Example 278, 2-(5-chloro-3-(1-isopropyl-6-oxo-1,6-dihydropyridin-3-yl)-2-methyl-1H-indol-1-yl)acetic acid] | 198
16 | Cc1c(-c2ccc(OC(C)C)nc2)c2cc(F)ccc2n1CC(=O)O [Example 277] | 71
17 | Cc1c(-c2nn(Cc3ncnn3-c3ccccc3)c(=O)c3ccccc23)c2cc(F)ccc2n1CC(=O)O [Example 261, 2-(5-fluoro-2-methyl-3-(4-oxo-3-((1-phenyl-1H-1,2,4-triazol-5-yl)methyl)-3,4-dihydrophthalazin-1-yl)-1H-indol-1-yl)acetic acid] | 11

Row | Compound | IC50 [nM]
18 | Cc1c(Cc2ccc(=O)n(CC(C)(C)O)n2)c2cc(F)ccc2n1CC(=O)O [Example 197, (5-fluoro-3-{[1-(2-hydroxy-2-methylpropyl)-6-oxo-1,6-dihydropyridazin-3-yl]-methyl}-2-methyl-1H-indol-1-yl)acetic acid] | 270
19 | Cc1c(-c2ccc(=O)n(C(C)C)c2)c2ccccc2n1CC(=O)O [Example 276, 2-(3-(1-isopropyl-6-oxo-1,6-dihydropyridin-3-yl)-2-methyl-1H-indol-1-yl)-acetic acid] | 577
20 | Cc1c(Cc2ccc(=O)n(Cc3ccc(F)cc3F)c2)c2cc(F)ccc2n1CC(=O)O [Example 20, 2-(3-((1-(2,4-Difluorobenzyl)-6-oxo-1,6-dihydropyridin-3-yl)methyl)-5-fluoro-2-methyl-1H-indol-1-yl)acetic acid] | 5
21 | Cc1c(-c2ccc(=O)n(Cc3cccc(F)c3F)c2)c2cc(F)ccc2n1[C@@H](C)C(=O)O [Example 306a, (S)-2-(3-(1-(2,3-difluorobenzyl)-6-oxo-1,6-dihydropyridin-3-yl)-5-fluoro-2-methyl-1H-indol-1-yl)propanoic acid] | > 2000
22 | Cc1c(-c2ccc(=O)n(Cc3cccc(F)c3F)c2)c2cc(F)ccc2n1CC(=O)O [Example 269, 2-(3-(1-(2,3-difluorobenzyl)-6-oxo-1,6-dihydropyridin-3-yl)-5-fluoro-2-methyl-1H-indol-1-yl)acetic acid] | 1
23 | Cc1c(-c2nn(Cc3ccc(F)cc3F)c(=O)c3ccccc23)c2cc(F)ccc2n1CC(=O)O [Example 64, 2-(3-(3-(2,4-difluorobenzyl)-4-oxo-3,4-dihydrophthalazin-1-yl)-5-fluoro-2-methyl-1H-indol-1-yl)acetic acid] | 9
24 | Cc1c(-c2ccc(=O)n(Cc3nnc[nH]3)n2)c2cc(F)ccc2n1CC(=O)O [Example 260a, 2-(3-(1-((4H-1,2,4-triazol-3-yl)methyl)-6-oxo-1,6-dihydropyridazin-3-yl)-5-fluoro-2-methyl-1H-indol-1-yl)acetic acid] | 3380
25 | Cc1c(-c2nn(CC(O)(C(F)(F)F)C(F)(F)F)c(=O)c3ccccc23)c2cc(F)ccc2n1CC(=O)O [Example 131, 2-(5-fluoro-2-methyl-3-(4-oxo-3-(3,3,3-trifluoro-2-hydroxy-2-(trifluoro-methyl)propyl)-3,4-dihydrophthalazin-1-yl)-1H-indol-1-yl)acetic acid] | 54
26 | Cc1c(-c2ccc(=O)n(Cc3cccc(F)c3F)c2)c2cc(F)ccc2n1CCC(=O)O [Example 303, 3-(3-(1-(2,3-difluorobenzyl)-6-oxo-1,6-dihydropyridin-3-yl)-5-fluoro-2-methyl-1H-indol-1-yl)propanoic acid] | > 2000
27 | Cc1c(-c2nn(CCc3ccccc3)c(=O)c3ccccc23)c2cc(F)ccc2n1CC(=O)O [Example 226, 2-(5-fluoro-2-methyl-3-(4-oxo-3-phenethyl-3,4-dihydrophthalazin-1-yl)-1H-indol-1-yl)acetic acid] | 2
28 | Cc1c(-c2nn(CC3CC3)c(=O)c3ccccc23)c2cc(Cl)ccc2n1CC(=O)O [Example 108, 2-(5-chloro-3-(3-(cyclopropylmethyl)-4-oxo-3,4-dihydrophthalazin-1-yl)-2-methyl-1H-indol-1-yl)acetic acid] | 22
29 | Cc1c(-c2nn(CC(C)(C)O)c(=O)c3ccccc23)c2cc(F)ccc2n1CC(=O)O [Example 129, 2-(5-fluoro-3-(3-(2-hydroxy-2-methylpropyl)-4-oxo-3,4-dihydrophthalazin-1-yl)-2-methyl-1H-indol-1-yl)acetic acid] | 136
30 | Cc1c(-c2ccc(=O)n(Cc3ccccc3)n2)c2cc(F)ccc2n1Cc1ccccc1 [Example 262c, 6-(1-benzyl-5-fluoro-2-methyl-1H-indol-3-yl)-2-benzylpyridazin-3(2H)-one] | > 10000
31 | Cc1c(-c2cn(CC(C)(C)O)c(=O)c3c2CCCC3)c2cc(F)ccc2n1CC(=O)O [Example 92, 2-(5-fluoro-3-(2-(2-hydroxy-2-methylpropyl)-1-oxo-1,2,5,6,7,8-hexahydro-iso-quinolin-4-yl)-2-methyl-1H-indol-1-yl)acetic acid] | > 1000
32 | Cc1c(-c2nn(Cc3ccccc3)c(=O)c3ccccc23)c2ccccc2n1CC(N)=O [Example 47, 2-(3-(3-Benzyl-4-oxo-3,4-dihydrophthalazin-1-yl)-2-methyl-1H-indol-1-yl)-acetamide] | > 2000
33 | Cc1c(-c2nn(Cc3ccncc3F)c(=O)c3ccccc23)c2cc(F)ccc2n1CC(=O)O [Example 138, 2-(5-fluoro-3-(3-((3-fluoropyridin-4-yl)methyl)-4-oxo-3,4-dihydrophthalazin-1-yl)-2-methyl-1H-indol-1-yl)acetic acid] | 5
